In PubChem BioAssay AID504664 (Sanford-Burnham Center for Chemical Genomics, 2011):
Calls of active or inactive are those of the source.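 Rule for the calls: active = IC50 mean at or below 20 µM; inactive = the rest.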

system: 697 NF-kB-Luc cells, PMA/ionomycin, luciferase luminescence, 16 h; assay: inhibitors of PMA/ionomycin-driven NF-kB luciferase in 697 – 697 B cells, luminescence, set 2, T-cell antigen receptor NF-kB inhibitors, SAR follow-up (AID 504664)

For `CC(C)(C)NC(=O)CCc1nc(-c2ccc(C(C)(C)C)cc2)no1`, which IC50 is on record?
Its IC50 is 2.5 µM.

`CCOc1ccc(-c2nc(CSCC(=O)NCc3ccco3)c(C)o2)cc1` was tested. Which IC50 did it give?
Its IC50 is 0.29 µM.

`COc1ccc(C)cc1NC(=O)c1ccc([N+](=O)[O-])o1` was tested. Which IC50 did it give?
The IC50 was > 79 µM (inactive).

For `Cc1cc(NC(=O)c2ccc([N+](=O)[O-])o2)ccc1NC(=O)c1ccco1`, which IC50 is on record?
The IC50 was > 79 µM (inactive).

How did the IC50 turn out when `CCCC(=O)NC(c1ccc(C)cc1)c1ccc2cccnc2c1O` (stereo not given) was run?
The IC50 was > 79 µM (inactive).

Which IC50 does the source give for `Cc1ccc(C)c(NC(=O)c2ccc([N+](=O)[O-])o2)c1` here?
Its IC50 is > 79 µM (inactive).

For `O=C(Nc1ccc(-c2nc3ncccc3o2)cc1)c1ccc([N+](=O)[O-])o1`, which IC50 is on record?
Its IC50 is > 79 µM (inactive).

For `O=C(Nc1ccc2c(c1)CCO2)c1ccc([N+](=O)[O-])o1`, which IC50 is on record?
Its IC50 is > 79 µM (inactive).

`O=C(Nc1ccc2oc(-c3cccnc3)nc2c1)c1ccc([N+](=O)[O-])o1` was tested. Which IC50 did it give?
Its IC50 is > 79 µM (inactive).

With `Cc1cc(NC(=O)c2ccc3c(c2)OCCO3)ccc1NC(=O)c1cc2ccccc2o1` as the molecule, how does the IC50 read?
The IC50 was 12.9 µM.

`COc1ccc(C(NC(=O)C(C)C)c2ccc3cccnc3c2O)cc1` (stereo not given) was tested. Which IC50 did it give?
The IC50 was > 79 µM (inactive).

Which IC50 does the source give for `CCCCC(=O)NC(c1ccc(C)cc1)c1ccc2cccnc2c1O` (stereo not given) here?
Its IC50 is > 79 µM (inactive).

With `COc1ccc(C(NC(=O)Cc2ccccc2)c2ccc3cccnc3c2O)cc1OC` (stereo not given) as the molecule, how does the IC50 read?
The IC50 was > 79 µM (inactive).

For `NS(=O)(=O)c1ccc(NC(=O)c2ccc([N+](=O)[O-])o2)cc1`, which IC50 is on record?
Its IC50 is 58.9 µM (inactive).

With `CC(=O)NC(c1ccc2ccccc2c1)c1ccc2cccnc2c1O` (stereo not given) as the molecule, how does the IC50 read?
The IC50 was > 79 µM (inactive).

`CC(C)CC(=O)NC(c1ccc(C(C)C)cc1)c1ccc2cccnc2c1O` (stereo not given) was tested. Which IC50 did it give?
The IC50 was > 79 µM (inactive).

How did the IC50 turn out when `Cc1cc(C)cc(NC(=O)c2ccc([N+](=O)[O-])o2)c1` was run?
Its IC50 is 31.9 µM (inactive).

For `COc1ccccc1C(NC(C)=O)c1ccc2cccnc2c1O` (stereo not given), which IC50 is on record?
The IC50 was > 79 µM (inactive).

With `CCNC(=O)CCc1nc(-c2ccc(C(C)(C)C)cc2)no1` as the molecule, how does the IC50 read?
The IC50 was < 0.16 µM.

With `Cc1ccc(C(NC(=O)C(C)C)c2ccc3cccnc3c2O)cc1` (stereo not given) as the molecule, how does the IC50 read?
The IC50 was > 79 µM (inactive).

How did the IC50 turn out when `CCOc1ccc(NC(=O)c2ccc([N+](=O)[O-])o2)cc1` was run?
The IC50 was > 79 µM (inactive).

For `CCCC(=O)NC(c1ccccc1)c1ccc2cccnc2c1O` (stereo not given), which IC50 is on record?
Its IC50 is > 79 µM (inactive).

Which IC50 does the source give for `Cc1ccc(NC(=O)c2ccc([N+](=O)[O-])o2)cc1C` here?
The IC50 was > 79 µM (inactive).

`CNC(=O)CCc1nc(-c2ccc(C(C)(C)C)cc2)no1` was tested. Which IC50 did it give?
Its IC50 is 0.03 µM.

Which IC50 does the source give for `O=C(Nc1ccc2oc(-c3ccncc3)nc2c1)c1ccc([N+](=O)[O-])o1` here?
The IC50 was > 79 µM (inactive).

For `Cc1cccc(NC(=O)c2ccc([N+](=O)[O-])o2)c1C`, which IC50 is on record?
The IC50 was > 79 µM (inactive).

`CC(=O)N1CCN(c2ccc(NC(=O)c3ccc([N+](=O)[O-])o3)cc2Cl)CC1` was tested. Which IC50 did it give?
Its IC50 is 62.3 µM (inactive).

With `CC(=O)N1CCc2cc(NC(=O)c3ccc([N+](=O)[O-])o3)ccc21` as the molecule, how does the IC50 read?
The IC50 was > 79 µM (inactive).

How did the IC50 turn out when `CN1CCN(c2ccccc2NC(=O)c2ccc([N+](=O)[O-])o2)CC1` was run?
The IC50 was > 79 µM (inactive).

Which IC50 does the source give for `CCC(=O)NC(c1ccc(C)cc1)c1ccc2cccnc2c1O` (stereo not given) here?
The IC50 was > 79 µM (inactive).

With `CCCCC(=O)NC(c1ccc(N(C)C)cc1)c1ccc2cccnc2c1O` (stereo not given) as the molecule, how does the IC50 read?
Its IC50 is > 79 µM (inactive).

Which IC50 does the source give for `CCN(CC)C(=O)CCc1nc(-c2ccc(C(C)(C)C)cc2)no1` here?
Its IC50 is 60.1 µM (inactive).

With `COc1ccc(C(NC(=O)CC(C)C)c2ccc3cccnc3c2O)cc1OC` (stereo not given) as the molecule, how does the IC50 read?
Its IC50 is > 79 µM (inactive).

With `CC(C)c1ccc(C(NC(=O)C2CCCCC2)c2cc([N+](=O)[O-])c3cccnc3c2O)cc1` (stereo not given) as the molecule, how does the IC50 read?
Its IC50 is > 79 µM (inactive).

With `CCOc1ccc(-c2nc(CSCC(=O)NC3CC3)c(C)o2)cc1` as the molecule, how does the IC50 read?
Its IC50 is 0.21 µM.

Which IC50 does the source give for `COc1ccc(C(=O)Nc2ccc(NC(=O)c3cc4ccccc4o3)cc2)cc1[N+](=O)[O-]` here?
Its IC50 is > 79 µM (inactive).

Which IC50 does the source give for `COc1cc(NC(=O)c2ccc3c(c2)OCO3)ccc1NC(=O)c1cc2ccccc2o1` here?
The IC50 was > 79 µM (inactive).

`CCCC(=O)NC(c1ccc(Cl)cc1)c1ccc2cccnc2c1O` (stereo not given) was tested. Which IC50 did it give?
Its IC50 is > 79 µM (inactive).

How did the IC50 turn out when `Cc1ccc(C(NC(=O)C2CCCCC2)c2ccc3cccnc3c2O)cc1` (stereo not given) was run?
Its IC50 is > 79 µM (inactive).

For `CC(C)CC(=O)NC(c1ccccc1)c1ccc2cccnc2c1O` (stereo not given), which IC50 is on record?
Its IC50 is > 79 µM (inactive).

`COc1ccc(C(NC(=O)CCc2ccccc2)c2ccc3cccnc3c2O)cc1` (stereo not given) was tested. Which IC50 did it give?
Its IC50 is > 79 µM (inactive).

`CCCCC(=O)NC(c1ccc(OC)cc1)c1ccc2cccnc2c1O` (stereo not given) was tested. Which IC50 did it give?
The IC50 was > 79 µM (inactive).

How did the IC50 turn out when `CCCCC(=O)NC(c1ccc(N(CC)CC)cc1)c1ccc2cccnc2c1O` (stereo not given) was run?
The IC50 was > 79 µM (inactive).

`CCCCC(=O)NC(c1ccc(Cl)cc1Cl)c1ccc2cccnc2c1O` (stereo not given) was tested. Which IC50 did it give?
The IC50 was > 79 µM (inactive).

With `CCOc1ccc(-c2nc(CS(=O)(=O)CC(=O)NCc3ccc(F)cc3)c(C)o2)cc1` as the molecule, how does the IC50 read?
Its IC50 is > 79 µM (inactive).

With `O=C(Nc1ccc(N2CCCC2)c(Cl)c1)c1ccc([N+](=O)[O-])o1` as the molecule, how does the IC50 read?
Its IC50 is 61.7 µM (inactive).

With `COc1ccc(C(=O)Nc2ccc(NC(=O)c3cc4ccccc4o3)cc2)cc1Cl` as the molecule, how does the IC50 read?
Its IC50 is > 79 µM (inactive).

With `Cc1ccc2nsnc2c1NC(=O)c1ccc([N+](=O)[O-])o1` as the molecule, how does the IC50 read?
The IC50 was > 79 µM (inactive).

For `CNC(=O)CCc1nc(-c2ccccc2)no1`, which IC50 is on record?
Its IC50 is > 79 µM (inactive).

How did the IC50 turn out when `CCCC(=O)NC(c1ccc(OC)cc1)c1ccc2cccnc2c1O` (stereo not given) was run?
Its IC50 is > 79 µM (inactive).

With `CCOc1ccc(C(=O)Nc2ccc(NC(=O)c3cc4ccccc4o3)cc2)cc1[N+](=O)[O-]` as the molecule, how does the IC50 read?
The IC50 was > 79 µM (inactive).

Which IC50 does the source give for `Cc1ccc(NC(=O)c2ccc([N+](=O)[O-])o2)cc1C(F)(F)F` here?
The IC50 was > 79 µM (inactive).

With `COc1ccc(C(=O)Nc2ccc(NC(=O)c3cc4ccccc4o3)cc2)cc1Br` as the molecule, how does the IC50 read?
Its IC50 is > 79 µM (inactive).

For `CCCCNC(=O)CCc1nc(-c2ccc(C(C)(C)C)cc2)no1`, which IC50 is on record?
Its IC50 is 14.6 µM.

Which IC50 does the source give for `CCC(=O)NC(c1ccc(N(C)C)cc1)c1ccc2cccnc2c1O` (stereo not given) here?
Its IC50 is > 79 µM (inactive).

`CCCCC(=O)NC(c1ccc(Cl)cc1)c1ccc2cccnc2c1O` (stereo not given) was tested. Which IC50 did it give?
The IC50 was > 79 µM (inactive).

For `CC(C)c1ccc(C(NC(=O)C2CCCCC2)c2ccc3cccnc3c2O)cc1` (stereo not given), which IC50 is on record?
Its IC50 is > 79 µM (inactive).

For `CN(C)C(=O)CCc1nc(-c2ccc(C(C)(C)C)cc2)no1`, which IC50 is on record?
The IC50 was 6.56 µM.

For `O=C(Nc1nc2c(Br)cc(Br)cc2c(=O)s1)c1ccco1`, which IC50 is on record?
The IC50 was 4.57 µM.

For `CCCCC(=O)NC(c1ccccc1)c1ccc2cccnc2c1O` (stereo not given), which IC50 is on record?
The IC50 was > 79 µM (inactive).

`Cc1cc(NC(=O)c2ccc([N+](=O)[O-])o2)cc(-c2nc3ccccc3o2)c1O` was tested. Which IC50 did it give?
Its IC50 is > 79 µM (inactive).

For `Cc1cc(-c2nc3ncccc3o2)ccc1NC(=O)c1ccc([N+](=O)[O-])o1`, which IC50 is on record?
Its IC50 is > 79 µM (inactive).

With `O=C(Nc1cccc2ncccc12)c1ccc([N+](=O)[O-])o1` as the molecule, how does the IC50 read?
Its IC50 is > 79 µM (inactive).

`CC(C)(C)c1ccc(-c2noc(CCC(N)=O)n2)cc1` was tested. Which IC50 did it give?
Its IC50 is 0.55 µM.

`N#Cc1cccc(NC(=O)c2ccc([N+](=O)[O-])o2)c1` was tested. Which IC50 did it give?
Its IC50 is > 79 µM (inactive).

Which IC50 does the source give for `COc1cc(-c2nc3n(n2)C(c2ccc(F)cc2)C2=C(CCCC2=O)N3)cc(OC)c1OC` (stereo not given) here?
Its IC50 is 29 µM (inactive).

With `COc1cc2nc(NC(=O)c3ccccc3)sc(=O)c2cc1OC` as the molecule, how does the IC50 read?
The IC50 was 0.86 µM.

Which IC50 does the source give for `CCCCC(=O)NC(c1ccc(C(C)C)cc1)c1ccc2cccnc2c1O` (stereo not given) here?
The IC50 was > 79 µM (inactive).

Which IC50 does the source give for `CC(=O)NC(c1ccc(C(C)C)cc1)c1ccc2cccnc2c1O` (stereo not given) here?
Its IC50 is > 79 µM (inactive).

`COc1ccc(C(=O)Nc2ccc(NC(=O)c3cc4ccccc4o3)cc2)cc1OC` was tested. Which IC50 did it give?
Its IC50 is > 79 µM (inactive).

Which IC50 does the source give for `CCCC(=O)NC(c1ccccc1OC)c1ccc2cccnc2c1O` (stereo not given) here?
The IC50 was > 79 µM (inactive).

With `CCN1CCN(c2c(Cl)cccc2NC(=O)c2ccc([N+](=O)[O-])o2)CC1` as the molecule, how does the IC50 read?
Its IC50 is 43.7 µM (inactive).

With `CCCC(=O)NC(c1ccccc1Cl)c1ccc2cccnc2c1O` (stereo not given) as the molecule, how does the IC50 read?
Its IC50 is > 79 µM (inactive).

`CCCOc1ccc(C(=O)Nc2ccc(NC(=O)c3cc4ccccc4o3)cc2)cc1` was tested. Which IC50 did it give?
Its IC50 is > 79 µM (inactive).

With `CCCC(=O)NC(c1ccc(C(C)C)cc1)c1ccc2cccnc2c1O` (stereo not given) as the molecule, how does the IC50 read?
Its IC50 is > 79 µM (inactive).
